Data published in patent US12589025B2, “Intraocular devices, systems, and methods” (Sight Sciences, Inc., priority 2021, dated 2026).

Set-up: species or system Yucatan pigs
Details: pig, in vivo
Description: Poly(lactic-co-glycolic acid) (PLGA) implants comprising bimatoprost were implanted into the eyes of 3 month old Yucatan pigs (6 pigs total). Prior to delivering the implant to either the sclera (fully intrascleral; “intrascleral arm”) or partially in the limbus (one end residing in the limbus, one end residing in the sclera; “limbal arm”), the pigs were placed under general anesthesia, and a lid speculum was inserted. Intraocular pressure was checked, and corneal thickness was checked in 4 quadrants, and centrally, using ultrasonic corneal pachymetry. The lid speculum was then removed.
In each of the 6 pigs, the right eye received one implant, and the left eye received 2 implants. In order to accomplish this, betadine drops were placed onto the left eyes of each pig and an eyelid speculum is inserted. A surgical operating microscope was positioned to visualize the implantation. Each eye was infraducted with a traction suture. A small conjunctival peritomy was created, and the sclera was marked with gentian violet-tipped calipers 2 mm posterior to the limbus. 10-0 nylon marking sutures were then placed 3-4 mm posterior to the limbus. A 27 G needle on a TB syringe was used to preform a tunnel for implantation toward the anterior chamber (group 1) or across the sclera (group 2). The implant was then deployed into the preformed tunnel, and the traction suture was released. Polymyxin-trimethoprim and tobramycin-dexamethasone drops were then placed in each eye, and the speculum was removed. The procedure was then repeated with two implants in each pig's […] eye.
At month 1, the pigs were examined, and one pig from each group was euthanized and the eyes were removed and placed in formalin for pathology. Aqueous samples from each of the 6 pigs were collected and analyzed for the presence of bimatoprost and Bimatoprost Acid (a metabolite of bimatoprost). At weeks 3, 10, and 20, the remaining pigs in each group were examined for redness, inflammation, eye rubbing, miosis, and squinting, as above.
At month 3, the remaining pigs were examined and aqueous samples collected (as above), and one of the remaining pigs from each group was euthanized (as above) for pathology.
The histopathology of the eyes is evaluated, as is the concentration of bimatoprost, and metabolites thereof, in the anterior chambers. The concentrations of bimatoprost and the bimatoprost acid metabolite in the anterior chamber of each pig's eyes are shown in FIGS. 24A-24D, at the time points described above. FIG. 24A and FIG. 24B show the concentrations of bimatoprost and the bimatoprost acid metabolite, respectively, for the three pigs (A1, A2, and A6) implanted with the intrascleral implant. […]

Row | SMILES | bimatoprost aqueous levels, limbal arm compared to intrascleral arm | presence of bimatoprost in the aqueous humor | Bimatoprost Acid concentration, limbal arm compared to intrascleral arm | presence of Bimatoprost Acid (metabolite of bimatoprost) in aqueous samples
1 | CCNC(=O)CCC/C=C\C[C@@H]1[C@@H](/C=C/[C@@H](O)CCc2ccccc2)[C@H](O)C[C@@H]1O [bimatoprost] | both higher and more sustained aqueous levels in the limbal arm | detectable |  | 
2 | O=C(O)CCC/C=C\C[C@@H]1[C@@H](/C=C/[C@@H](O)CCc2ccccc2)[C@H](O)C[C@@H]1O [Bimatoprost Acid] |  |  | higher concentration in the limbal arm | detectable
